Source: patent publication US11207330B2, “Mirtazapine for use in medication overuse headache based on tension-type headache” (Curatis AG, priority 2019, dated 2021)

Assays:
[1] = system: patients with daily medication overuse headache (MOH) based on tension-type headache; test: Intake of overused analgesic medication recorded by the same MOH patients; type: in vivo, human; settings: for Analgesics Usage: 15 to 30 mg mirtazapine per day for 8 weeks, last four weeks of intake; for Reduction of Analgesics Usage versus placebo: mirtazapine 15 to 30 mg per day vs placebo period, last four weeks
Experimental: (§1) a) Patients had daily medication overuse headache (MOH) originating from daily analgesic use primarily against tension-type headache as primary headache. They were treated first with placebo for 8 weeks, followed by two weeks of wash-out (taking placebo), and then administration of 15 to 30 mg of mirtazapine per day for 8 weeks. During that time they were allowed to continue taking their analgesics as usual, if they felt it was necessary.
b) Moreover, the intake of overused analgesic medication was recorded by the same patients and during the time frame as described above in (a). Patient 1 reduced the intake of overused medication by 80% (Table 2). As for patient 2, the reduction is 15%, whereby both patients additionally benefit from improved well-being, i.e. from decreased number of headache attacks, shorter headache attacks with lower headache intensity (see above).

[2] = system: patients with daily medication overuse headache (MOH) based on tension-type headache; test: Headache diary AUC (headache duration multiplied with headache intensity) in MOH patients, placebo then mirtazapine; type: in vivo, human; settings: for AUC (sum of daily headache duration multiplied with headache intensity): 15 to 30 mg mirtazapine per day for 8 weeks, last four weeks of intake, analgesics allowed; for Reduction of AUC versus placebo: mirtazapine 15 to 30 mg per day vs placebo period, last four weeks
Experimental: as §1
At the same time, they had to keep a diary where they had to write down the frequency and duration of their headache as well as the headache intensity. After completion of the study the diaries were evaluated and the daily recordings of headache duration was multiplied with headache intensity to give the “AUC”, which means “area under the curve”. The results shown in table 1 and table 2 below are from the last four weeks of intake of either placebo or mirtazapine. […] It can be seen that both patients experienced improvement of their headache upon administration of mirtazapine.
FIG. 1 depicts the subjective well-being of patients, i.e. decreased number of headache attacks, shorter headache attacks with lower headache intensity. The lower the count of the y-axis, the better is the subjective well-being. AUC means area under the curve. AUC was calculated as the sum of the daily recordings of headache duration multiplied with headache intensity.

For `CN1CCN2c3ncccc3Cc3ccccc3C2C1` (racemic) [Mirtazapine, (RS)-(±)-2-methyl-1,2,3,4,10,14b-hexahydropyrazino[2,1-a]pyrido[2,3-c][2]benzazepine], the “Analgesics Usage” value ([1]; Patient 1) was 2, the “Reduction of Analgesics Usage versus placebo” value ([1]; Patient 1) was 80% and the “Reduction of Analgesics Usage versus placebo” value ([1]; Patient 1, listed as mirtazapine) was 80%. The “Analgesics Usage” value ([1]; Patient 2) was 47, the “Reduction of Analgesics Usage versus placebo” value ([1]; Patient 2) was 15% and the “Reduction of Analgesics Usage versus placebo” value ([1]; Patient 2, listed as mirtazapine) was 15%. The “AUC (sum of daily headache duration multiplied with headache intensity)” value ([2]; Patient 1) was 420, the “Reduction of AUC versus placebo” value ([2]; Patient 1) was 62% and the “AUC (sum of daily headache duration multiplied with headache intensity)” value ([2]; Patient 2) was 895. For the same compound, the “Reduction of AUC versus placebo” value ([2]; Patient 2) was 34%.
